# Measured values taken from patent publication US10696648B2, “Inhibitors of indoleamine 2,3-dioxygenase and methods of their use” (BRISTOL-MYERS SQUIBB COMPANY, priority 2016, dated 2020).
# Target: T1, human IDO1 (Homo sapiens, UniProt P14902)
# T1 construct: expressed in transfected cells
# Experiment: HEK293 cells stably expressing human IDO1, IDO inhibition assay (kynurenine, Ehrlich reagent)
# Assay type: cell-based
# Conditions: 20 hours incubation, absorbance at 490 nm, read-out: HEK Human IDO-1 Bio Activity (IDO IC50)
# Description: HEK293 cells were transfected with a pCDNA-based mammalian expression vector harboring human IDO1 cDNA (NM 002164.2) by electroporation. They were cultured in medium (DMEM with 10% FBS) containing 1 mg/ml G418 for two weeks. Clones of HEK293 cells that stably expressed human IDO1 protein were selected and expanded for IDO inhibition assay. The human IDO1/HEK293 cells were seeded at 10,000 cells per 50 μL per well with RPMI/phenol red free media contains 10% FBS in a 384-well black wall clear bottom tissue culture plate (Matrix Technologies LLC) 100 nL of certain concentration of compound was then added to each well using ECHO liquid handling systems. The cells were incubated for 20 hours in 37° C. incubator with 5% CO2. The compound treatments were stopped by adding trichloroacetic acid (Sigma-Aldrich) to a final concentration at 0.2%. The cell plate was further incubated at 50° C. for 30 minute. The equal volume supernatant (20 μL) and 0.2% (w/v) Ehrlich reagent (4-dimethylaminobenzaldehyde, Sigma-Aldrich) in glacial acetic acid were mixed in a new clear bottom 384-well plate. This plate was then incubated at room temperature for 30 minute. The absorbance at 490 nm was measured on Envision plate reader. Compound IC50 values were calculated using the counts of 500 nM of a reference standard treatment as one hundred percent inhibition, and counts of no compound but DMSO treatment as zero percent inhibition.
# T1 sequence (P14902 whole entry): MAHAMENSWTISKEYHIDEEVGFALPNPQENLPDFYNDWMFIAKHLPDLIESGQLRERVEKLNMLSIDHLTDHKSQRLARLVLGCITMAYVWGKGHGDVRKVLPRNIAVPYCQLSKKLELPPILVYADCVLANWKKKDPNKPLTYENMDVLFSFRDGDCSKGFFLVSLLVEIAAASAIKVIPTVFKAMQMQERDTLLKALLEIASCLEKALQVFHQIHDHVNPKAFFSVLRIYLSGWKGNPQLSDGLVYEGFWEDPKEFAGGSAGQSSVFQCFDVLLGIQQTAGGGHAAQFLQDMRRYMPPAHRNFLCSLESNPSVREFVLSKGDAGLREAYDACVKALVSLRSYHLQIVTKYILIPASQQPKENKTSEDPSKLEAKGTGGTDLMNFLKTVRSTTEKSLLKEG
row,Compound,IC50
1,"COc1ccc(CN(C(=O)Nc2ccc(OC(F)(F)F)cc2)[C@H]2CC[C@H](c3ccccc3)CC2)cc1 [Example 10, 1-(4-methoxybenzyl)-1-(trans-4-phenylcyclohexyl)-3-(4-(trifluoromethoxy)phenyl)urea]",< 1000 nM
2,"O=C(Nc1ccc(Cl)cc1)N(Cc1ccccc1)[C@H]1CC[C@@H](c2ccnc3ccc(F)cc32)CC1 [Example 23, 1-benzyl-3-(4-chlorophenyl)-1-(cis-4-(6-fluoroquinolin-4-yl)cyclohexyl)urea]",< 1000 nM
3,"C[C@H](NC(=O)N(Cc1ccccc1)[C@H]1CC[C@H](c2ccnc3ccc(F)cc32)CC1)c1ccc(Cl)cc1 [Example 39, 1-benzyl-3-((S)-1-(4-chlorophenyl)ethyl)-1-((1r,4S)-4-(6-fluoroquinolin-4-yl)cyclohexyl)urea]",< 10000 nM
4,"CN(C(=O)Nc1ccc(OC(F)(F)F)cc1)C1CCN(c2ccnc3ccc(F)cc23)CC1 [Example 3, 1-(1-(6-Fluoroquinolin-4-yl)piperidin-4-yl)-1-methyl-3-(4-(trifluoromethoxy)phenyl)urea]",< 1000 nM
5,"Cc1ccc(NC(=O)N(Cc2ccccc2)[C@H]2CC[C@H](c3ccnc4ccc(F)cc43)CC2)cc1 [Example 20, 1-benzyl-1-(trans-4-(6-fluoroquinolin-4-yl)cyclohexyl)-3-(p-tolyl)urea]",< 1000 nM
6,"O=C(O)Cc1ccc(CN(C(=O)Nc2ccccc2)[C@H]2CC[C@H](c3ccnc4ccc(F)cc43)CC2)cc1 [Example 27, 2-(4-((1-(trans-4-(6-fluoroquinolin-4-yl)cyclohexyl)-3-phenylureido)methyl)phenyl)acetic acid]",< 100 nM
7,"O=C(O)Cc1ccc(CN(C(=O)Nc2ccc(Cl)cc2)[C@H]2CC[C@H](c3ccnc4ccc(F)cc43)CC2)cc1 [Example 25, 2-(4-((3-(4-chlorophenyl)-1-(trans-4-(6-fluoroquinolin-4-yl)cyclohexyl)ureido)methyl)phenyl)acetic Acid]",< 1000 nM
8,"CN(C(=O)Nc1ccc(Cl)cc1)[C@H]1CC[C@H](c2ccnc3ccc(F)cc32)CC1 [Example 14, 3-(4-Chlorophenyl)-1-(trans-4-(6-fluoroquinolin-4-yl)cyclohexyl)-1-methylurea]",< 100 nM
9,"COc1ccc(CN(C(=O)Nc2ccc(F)cc2F)[C@H]2CC[C@H](c3ccccc3)CC2)cc1 [Example 5, 3-(2,4-difluorophenyl)-1-(4-methoxybenzyl)-1-(trans-4-phenylcyclohexyl)urea]",< 1000 nM
10,"CN(C(=O)Nc1ccc(Cl)cc1)[C@H]1CC[C@@H](c2ccnc3ccc(F)cc32)CC1 [Example 15, 3-(4-chlorophenyl)-1-(cis-4-(6-fluoroquinolin-4-yl)cyclohexyl)-1-methylurea]",< 1000 nM
11,"CCN(C(=O)Nc1ccc(Cl)cc1)[C@H]1CC[C@@H](c2ccnc3ccc(F)cc32)CC1 [Example 17, 3-(4-chlorophenyl)-1-ethyl-1-(cis-4-(6-fluoroquinolin-4-yl)cyclohexyl)urea]",< 1000 nM
12,"COc1ccc(CN(C(=O)NC2CC2)C2CCC(c3ccccc3)CC2)cc1 (stereo not shown) [Example 45, 3-cyclopropyl-1-(4-methoxybenzyl)-1-((1r,4r)-4-phenylcyclo-hexyl)urea]",< 1000 nM
13,"C[C@@H](NC(=O)N(Cc1ccccc1)[C@H]1CC[C@H](c2ccnc3ccc(F)cc32)CC1)c1ccc(F)cc1 [Example 40, 1-benzyl-3-((R)-1-(4-fluorophenyl)ethyl)-1-((1r,4R)-4-(6-fluoroquinolin-4-yl)cyclohexyl)urea]",< 1000 nM
14,"CCCCc1ccc(NC(=O)N(C)C2CCN(c3ccnc4ccc(F)cc34)CC2)cc1 [Example 2, 3-(4-Butylphenyl)-1-(1-(6-fluoroquinolin-4-yl)piperidin-4-yl)-1-methylurea]",< 100 nM
15,"COc1ccc(CN(C(=O)NC2CCCC2)C2CCC(c3ccccc3)CC2)cc1 (stereo not shown) [Example 44, 3-cyclopentyl-1-(4-methoxybenzyl)-1-((1r,4r)-4-phenylcyclo-hexyl)urea]",< 1000 nM
16,"COc1ccc(CN(C(=O)NC2CCCCC2)[C@H]2CC[C@H](c3ccccc3)CC2)cc1 [Example 43, 3-cyclohexyl-1-(4-methoxybenzyl)-1-((1r,4r)-4-phenylcyclohexyl)urea]",< 100 nM
17,"C[C@H](NC(=O)N[C@H]1CC[C@H](c2ccnc3ccc(F)cc32)CC1)c1ccc(Cl)cc1 [Example 34, 1-((S)-1-(4-chlorophenyl)ethyl)-3-((1r,4S)-4-(6-fluoroquinolin-4-yl)cyclohexyl)urea]",< 1000 nM
18,"O=C(Nc1ccc(F)cc1)N(Cc1ccccc1)[C@H]1CC[C@H](c2ccnc3ccc(F)cc32)CC1 [Example 19, 1-benzyl-3-(4-fluorophenyl)-1-(trans-4-(6-fluoroquinolin-4-yl)cyclohexyl)urea]",< 100 nM
19,"C[C@H](NC(=O)N[C@H]1CC[C@@H](c2ccnc3ccc(F)cc32)CC1)c1ccc(Cl)cc1 [Example 35, 1-((S)-1-(4-chlorophenyl)ethyl)-3-((1s,4R)-4-(6-fluoroquinolin-4-yl)cyclohexyl)urea]",< 1000 nM
20,"COc1ccc(CN(C(=O)NCc2ccc(F)cc2)C2CCC(c3ccccc3)CC2)cc1 (stereo not shown) [Example 32, 3-(4-fluorobenzyl)-1-(4-methoxybenzyl)-1-((1r,4r)-4-phenylcyclohexyl)urea]",< 10000 nM
21,"CN(C(=O)Nc1ccc(Cl)cc1)C1CCN(c2ccnc3ccc(F)cc23)CC1 [Example 1, 3-(4-Chlorophenyl)-1-(1-(6-fluoroquinolin-4-yl)piperidin-4-yl)-1-methylurea]",< 1000 nM
22,"O=C(O)Cc1ccc(CN(C(=O)Nc2ccc(Cl)cc2)[C@H]2CC[C@@H](c3ccnc4ccc(F)cc43)CC2)cc1 [Example 28, 2-(4-((3-(4-chlorophenyl)-1-(cis-4-(6-fluoroquinolin-4-yl)cyclohexyl)ureido)methyl)phenyl)acetic acid]",< 10000 nM
23,"O=C(Nc1ccc(Cl)cc1F)N(Cc1ccccc1)[C@H]1CC[C@@H](c2ccnc3ccc(F)cc32)CC1 [Example 24, 1-benzyl-3-(4-chloro-2-fluorophenyl)-1-(cis-4-(6-fluoroquinolin-4-yl)cyclohexyl)urea]",< 100 nM
24,"COc1ccc(CN(C(=O)Nc2ccc(F)c(F)c2)[C@H]2CC[C@H](c3ccccc3)CC2)cc1 [Example 8, 3-(3,4-difluorophenyl)-1-(4-methoxybenzyl)-1-(trans-4-phenylcyclohexyl)urea]",< 1000 nM
25,"O=C(Nc1ccc(Cl)cc1)N(Cc1ccccc1)[C@H]1CC[C@H](c2ccnc3ccc(F)cc32)CC1 [Example 18, 1-benzyl-3-(4-chlorophenyl)-1-(trans-4-(6-fluoroquinolin-4-yl)cyclohexyl)urea]",< 100 nM
26,"COc1ccc(CN(C(=O)Nc2ccc(Cl)cc2)[C@H]2CC[C@H](c3ccccc3)CC2)cc1 [Example 4, 3-(4-Chlorophenyl)-1-(4-methoxybenzyl)-1-((1r,4r)-4-phenylcyclohexyl)urea]",< 100 nM
27,"O=C(Nc1ccc(Cl)cc1F)N(Cc1ccccc1)[C@H]1CC[C@H](c2ccnc3ccc(F)cc32)CC1 [Example 21, 1-benzyl-3-(4-chloro-2-fluorophenyl)-1-(trans-4-(6-fluoroquinolin-4-yl)cyclohexyl)urea]",< 1000 nM
28,"C[C@@H](NC(=O)N(Cc1ccc(CC(=O)O)cc1)[C@H]1CC[C@H](c2ccnc3ccc(F)cc32)CC1)c1ccc(F)cc1 [Example 41, 2-(4-((3-((R)-1-(4-fluorophenyl)ethyl)-1-((1 r,4R)-4-(6-fluoroquinolin-4-yl)cyclohexyl)ureido)methyl)phenyl)acetic Acid]",< 100 nM
